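Protocol summary: plate cells (96-well), add compound at 5 concentrations, incubate 48 h, interpolate endpoints linearly. GI50: concentration for 50% inhibition of growth.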 Calls of active or inactive are those of the source. Cut-off read from the data, not from the text of the source: active = GI50 up to about 1.1 µM and inactive = higher.
Key:
Test in all cases: inhibition of tumour cell growth, NCI panel, 48 h
DLD-1 = test system: DLD-1
NCI-H23 = test system: NCI-H23
HOP-92 = test system: HOP-92
TK-10 = test system: TK-10
KM12 = test system: KM12
M19-MEL = test system: M19-MEL
MOLT-4 = test system: MOLT-4
K562 = test system: K562
A549 = test system: A549
NCI-H460 = test system: NCI-H460
HCT-116 = test system: HCT-116
EKVX = test system: EKVX
SNB-75 = test system: SNB-75
IGROV-1 = test system: IGROV-1
SK-OV-3 = test system: SK-OV-3
SN12C = test system: SN12C
SF-268 = test system: SF-268
U-251 = test system: U-251
RXF 393 = test system: RXF 393
HCC 2998 = test system: HCC 2998
LOX IMVI = test system: LOX IMVI
SF-539 = test system: SF-539
COLO 205 = test system: COLO 205
SR = test system: SR
DMS-114 = test system: DMS-114
OVCAR-8 = test system: OVCAR-8
UACC-257 = test system: UACC-257
HOP-62 = test system: HOP-62
CAKI-1 = test system: CAKI-1
RPMI-8226 = test system: RPMI-8226
HCT-15 = test system: HCT-15
SK-MEL-2 = test system: SK-MEL-2
OVCAR-3 = test system: OVCAR-3
OVCAR-4 = test system: OVCAR-4
SNB-19 = test system: SNB-19
RXF 631 = test system: RXF 631
UACC-62 = test system: UACC-62
SK-MEL-28 = test system: SK-MEL-28
KM-20L2 = test system: KM-20L2
A498 = test system: A498
UO-31 = test system: UO-31
NCI-H522 = test system: NCI-H522
HL-60 = test system: HL-60
CCRF-CEM = test system: CCRF-CEM
DMS-273 = test system: DMS-273
SW-620 = test system: SW-620
SK-MEL-5 = test system: SK-MEL-5
SF-295 = test system: SF-295
M14 = test system: M14
SNB-78 = test system: SNB-78
786-0 = test system: 786-0
BT-549 = test system: BT-549
ACHN = test system: ACHN
Malme-3M = test system: Malme-3M
DU-145 = test system: DU-145
OVCAR-5 = test system: OVCAR-5
MDA-MB-435 = test system: MDA-MB-435
HT-29 = test system: HT-29
NCI/ADR-RES = test system: NCI/ADR-RES
HOP-18 = test system: HOP-18
MDA-N = test system: MDA-N
MCF7 = test system: MCF7
MDA-MB-231 = test system: MDA-MB-231
XF498 = test system: XF498
LXFL 529 = test system: LXFL 529
PC-3 = test system: PC-3
NCI-H226 = test system: NCI-H226

In the case of c1cc(-c2cn[nH]c2)cc(-c2cn[nH]c2)c1, the GI50 (DLD-1) is reported as 33700 nM (inactive), the GI50 (NCI-H23) is reported as 47000 nM (inactive) and the GI50 (HOP-92) is reported as > 100000 nM (inactive). The GI50 (TK-10) was 16700 nM (inactive), the GI50 (KM12) was 41000 nM (inactive) and the GI50 (M19-MEL) was 71300 nM (inactive). The GI50 (MOLT-4) was 33100 nM (inactive), the GI50 (K562) was 43000 nM (inactive) and the GI50 (A549) was 20100 nM (inactive). For the same molecule, the GI50 (NCI-H460) was 41400 nM (inactive), the GI50 (HCT-116) was 20200 nM (inactive) and the GI50 (EKVX) was 6240 nM (inactive). For the same molecule, the GI50 (SNB-75) was 6760 nM (inactive), the GI50 (IGROV-1) was 51200 nM (inactive) and the GI50 (SK-OV-3) was 8550 nM (inactive). The GI50 (SN12C) was 39400 nM (inactive), the GI50 (SF-268) was 25800 nM (inactive) and the GI50 (U-251) was 46800 nM (inactive). The GI50 (RXF 393) was 6440 nM (inactive), the GI50 (HCC 2998) was 88900 nM (inactive) and the GI50 (LOX IMVI) was 36800 nM (inactive). The GI50 (SF-539) was 17900 nM (inactive), the GI50 (COLO 205) was 53300 nM (inactive) and the GI50 (SR) was 31800 nM (inactive). For the same molecule, the GI50 (DMS-114) was 45900 nM (inactive), the GI50 (OVCAR-8) was 36900 nM (inactive) and the GI50 (UACC-257) was 90800 nM (inactive). For the same molecule, the GI50 (HOP-62) was 17800 nM (inactive), the GI50 (CAKI-1) was 8040 nM (inactive) and the GI50 (RPMI-8226) was 32700 nM (inactive). For the same molecule, the GI50 (HCT-15) was 28400 nM, the GI50 (SK-MEL-2) was 56000 nM (inactive) and the GI50 (OVCAR-3) was 33500 nM (inactive). The GI50 (OVCAR-4) was 54000 nM (inactive), the GI50 (SNB-19) was 61100 nM (inactive) and the GI50 (RXF 631) was 38000 nM (inactive). For the same molecule, the GI50 (UACC-62) was 11600 nM (inactive), the GI50 (SK-MEL-28) was 35900 nM (inactive) and the GI50 (KM-20L2) was 33000 nM (inactive). For the same molecule, the GI50 (A498) was 25300 nM (inactive), the GI50 (UO-31) was 16000 nM (inactive) and the GI50 (NCI-H522) was 27200 nM (inactive). For the same molecule, the GI50 (HL-60) was 30900 nM (inactive), the GI50 (CCRF-CEM) was 29400 nM (inactive) and the GI50 (DMS-273) was 30600 nM (inactive). The GI50 (SW-620) was 30400 nM (inactive), the GI50 (SK-MEL-5) was 32600 nM (inactive) and the GI50 (SF-295) was 39800 nM (inactive). The GI50 (M14) was 44600 nM (inactive), the GI50 (SNB-78) was 80700 nM (inactive) and the GI50 (786-0) was 37300 nM (inactive).

COc1ccc2nc3ccccc3c(NCCN(C)CCCl)c2c1 was tested, and the GI50 (DLD-1) was 524 nM (active), the GI50 (BT-549) was 900 nM (active) and the GI50 (NCI-H23) was 604 nM (active). The GI50 (HOP-92) was 622 nM (active), the GI50 (TK-10) was 1620 nM (inactive) and the GI50 (KM12) was 807 nM (active). For the same molecule, the GI50 (M19-MEL) was 906 nM (active), the GI50 (MOLT-4) was 42.9 nM (active) and the GI50 (K562) was 337 nM (active). The GI50 (A549) was 479 nM (active), the GI50 (NCI-H460) was 322 nM (active) and the GI50 (HCT-116) was 249 nM (active). The GI50 (EKVX) was 1510 nM (inactive), the GI50 (ACHN) was 240 nM (active) and the GI50 (SNB-75) was 1040 nM (active). The GI50 (IGROV-1) was 469 nM (active), the GI50 (Malme-3M) was 399 nM (active) and the GI50 (SK-OV-3) was 861 nM (active). For the same molecule, the GI50 (SN12C) was 319 nM (active), the GI50 (DU-145) was 1120 nM (active) and the GI50 (SF-268) was 550 nM (active). The GI50 (OVCAR-5) was 1030 nM (active), the GI50 (U-251) was 541 nM (active) and the GI50 (RXF 393) was 592 nM (active). For the same molecule, the GI50 (MDA-MB-435) was 364 nM (active), the GI50 (HCC 2998) was 670 nM (active) and the GI50 (LOX IMVI) was 336 nM (active). The GI50 (SF-539) was 388 nM (active), the GI50 (HT-29) was 377 nM (active) and the GI50 (COLO 205) was 299 nM (active). For the same molecule, the GI50 (SR) was 30.3 nM (active), the GI50 (NCI/ADR-RES) was 647 nM (active) and the GI50 (DMS-114) was 752 nM (active). The GI50 (OVCAR-8) was 431 nM (active), the GI50 (HOP-18) was 2060 nM (inactive) and the GI50 (UACC-257) was 1640 nM (inactive). For the same molecule, the GI50 (MDA-N) was 344 nM (active), the GI50 (HOP-62) was 869 nM (active) and the GI50 (CAKI-1) was 205 nM (active). The GI50 (RPMI-8226) was 247 nM (active), the GI50 (HCT-15) was 515 nM and the GI50 (SK-MEL-2) was 847 nM (active). The GI50 (OVCAR-3) was 736 nM (active), the GI50 (OVCAR-4) was 908 nM (active) and the GI50 (SNB-19) was 1120 nM (inactive). For the same molecule, the GI50 (UACC-62) was 681 nM (active), the GI50 (SK-MEL-28) was 1690 nM (inactive) and the GI50 (KM-20L2) was 438 nM (active). The GI50 (MCF7) was 587 nM (active), the GI50 (MDA-MB-231) was 1150 nM (inactive) and the GI50 (A498) was 984 nM (active). The GI50 (XF498) was 514 nM (active), the GI50 (LXFL 529) was 393 nM (active) and the GI50 (UO-31) was 1160 nM (inactive). The GI50 (NCI-H522) was 282 nM (active), the GI50 (HL-60) was 259 nM (active) and the GI50 (CCRF-CEM) was 353 nM (active). For the same molecule, the GI50 (DMS-273) was 412 nM (active), the GI50 (SW-620) was 175 nM (active) and the GI50 (SK-MEL-5) was 644 nM (active). For the same molecule, the GI50 (PC-3) was 205 nM (active), the GI50 (SF-295) was 728 nM (active) and the GI50 (NCI-H226) was 608 nM (active). The GI50 (M14) was 843 nM (active), the GI50 (SNB-78) was 902 nM (active) and the GI50 (786-0) was 210 nM (active).

Reference: ChEMBL document CHEMBL1201862, “PubChem BioAssay data set” (2004)
